In patent US12509446B2, “FYN and VEGFR2 kinase inhibitors” (ROTTAPHARM BIOTECH S.R.L., priority 2019, dated 2025):
Where two headings read alike, the source gives them in different places.

Tests used:
NF-kB = experiment: Gene reporter (GR) assay, NF-kB activation after TNFα in JB6 Cl 41-5a (P+) cells; format: cell-based, murine; parameters: key to Gene reporter (GR) inhibition, no effect: ne: no effect; conditions: for IC50: TNFα 2 ng/ml, non toxic concentrations, read-out: Gene reporter (GR) inhibition IC50
Source text: To determine if the compounds of the invention were active also in a cellular model, a gene reporter assay was established in a cell line (JB6 Cl 41-5a (P+)) know to activate Fyn kinase via an inflammatory stimuli (TNFα). GR assay measures the activation of the nuclear transcription factor NF-kB, situated down-stream the Fyn activation pathway. Products active in this analysis has to penetrate in the cell and inhibit the activation pathway of NF-kB.
The murine epithelial cell line JB6 Cl 41-5a (P+) (ATCC® Cat. #CRL-2010) was stably transfected with the pGL4.32[luc2P/NFkB-RE/Hygro] vector (Promega). Clonal selection was achieved by limiting with 80 μg/ml Hygromycin B. The clones were tested for their response to TNFα stimulus.
JB6(P+) NFkB-RE-luc2P transfected cells were used for the analysis of NF-kB activity modulation, after TNFα stimulation, by Fyn-inhibitors.
Cells were pre-treated with the different compounds for 1 h and then stimulated with 2 ng/ml TNFα for 4 h. Each tested condition was analyzed in quadruplicate.
The luciferase analysis was performed with ONE-Glo™+ToxLuciferase Reporter and Cell Viability Assay kit (Promega).

IL-1β = experiment: Gene expression in rat articular chondrocytes under IL-1β stimulation, IL-1β; format: cell-based; conditions: for IC50: Rattus norvegicus, Chondrocyte, 6 h incubation; for IL-1β gene expression, percentage of inhibitory effect at the highest non toxic concentration: 6 h
Protocol: (§1) For gene expression analysis, 10 days after plating, the medium was changed and substituted with DMEM GlutaMAX I 0.4% to synchronize the cells. The cells were then co-treated in DMEM GlutaMAX I 0.4% with different concentrations of the test compounds and […] at a final concentration of 2 ng/ml for 6 h and 24 h. The test compound concentrations used have been chosen on the basis of the toxicity data.
(§2) At the end of the incubation, the supernatant was discarded, the cell were washed with cold PBS1X and scraped with 200 μl of RNA lysis buffer 1X (Nucleic Acid Purification Lysis Solution, Applied Biosystems).
(§3) Total RNA was purified using ABI Prism™ 6100 Nucleic Acid PrepStation (Applied Biosystems) following manufacturer's instructions.
(§4) Total RNA was retrotranscribed using the High-Capacity cDNA Archive Kit (Applied Biosystems-Thermo Fisher Scientific) following manufacturer's instructions.
(§5) The specific probes and primers for RealTime PCR were from Applied Biosystems (Thermo Fisher Scientific) as Assays-on-Demand™, while the probe and primers for the endogenous control 18S was a PDAR (Pre-Developed TaqMan® Assay Reagents—Applied Biosystems-Thermo Fisher Scientific).
(§6) The assays were designed to amplify target cDNA without amplifying genomic DNA.
(§7) Gene expression analysis for IL-1β, IL-6 and ADAMTS-5 were performed at 6 h incubation, while the gene expression analysis for MMP3, MMP13 and COX2 were performed at 24 h incubation.
(§8) For each compound the maximal concentration tested was dependent on the toxicity results obtained on primary rat chondrocytes.
(§9) The data analysis, with the normalisation on the amplified values for the 18S was done following the specific instruction of Applied Biosystems for the relative quantification of gene expression.

IL-6 = experiment: Gene expression in rat articular chondrocytes under IL-1β stimulation, IL-6; format: cell-based; conditions: for IC50: Rattus norvegicus, Chondrocyte, 6 h incubation; for IL-6 gene expression, percentage of inhibitory effect at the highest non toxic concentration: 6 h
Protocol: as §1, §2, §3, §4, §5, §6, §7, §8, §9

COX2 = experiment: Gene expression in rat articular chondrocytes under IL-1β stimulation, COX2; format: cell-based; conditions: for COX2 gene expression, percentage of inhibitory effect at the highest non toxic concentration: 24 h
ADAMTS-5 = experiment: Gene expression in rat articular chondrocytes under IL-1β stimulation, ADAMTS-5; format: cell-based; parameters: key to ADAMTS-5 gene expression, no effect: ne: no effect; conditions: for IC50: Rattus norvegicus, Chondrocyte, 6 h incubation
Protocol: as §1, §2, §3, §4, §5, §6, §7, §8, §9

MMP3 = experiment: Gene expression in rat articular chondrocytes under IL-1β stimulation, MMP3; format: cell-based; parameters: key to MMP3 gene expression, no effect: ne: no effect; conditions: for MMP3 gene expression, no effect: 24 h; for IC50: Rattus norvegicus, Chondrocyte, 24 h incubation
Protocol: as §1, §2, §3, §4, §5, §6, §7, §8, §9

MMP13 = experiment: Gene expression in rat articular chondrocytes under IL-1β stimulation, MMP13; format: cell-based; parameters: key to MMP13 gene expression, no effect: ne: no effect
Protocol: as §1, §2, §3, §4, §5, §6, §7, §8, §9

[1] = test system: bovine nasal septum cartilage; experiment: Inhibition of cartilage degradation (GAG release) induced by IL-1α in a bovine in vitro model; format: cell-based; conditions: Bos taurus, read-out: Bovine cartilage degradation induced by IL-1α, % inhibitory effect at max concentration
Protocol: Nasal septum cartilage was collected from an eight months-old male bovine in a local slaughterhouse.
Tissue was sprayed with ethanol 70% and immediately put in sterile PBS with Antibiotic-Antimycotic stabilized solution (PBS-AASS). It was cut in order to obtain small punches (diameter 2 mm, 1 mm-thick). washed with sterile PBS-AASS, the slices were transferred in a 96X well plate (one piece per well) in DMEM 10%+AASS. 48 h later the cartilage was stimulated in white DMEM+0.1% BSA+AASS with IL-1α […] in the absence or presence of the studied compounds.
The compounds concentration used in this analysis was chosen depending on the toxicity results obtained in rat primary chondrocytes at 48 h of incubation.
After 48 h stimulation, the culture medium was collected and stored at −80° C. The cartilage punches were digested with papain at 65° C. for 2 h in phosphate buffer (0.05M pH 6.5 with 2 mM N-acetil-L-cisteine and 2 mM EDTA).
The glycosaminoglycan (GAG) determination was done by a colorimetric assay with 1,9 dimethyl methylene blue (DMB).
Digested cartilage samples were diluted in PBS-BSA 1%. To 100 μl of diluted samples or standard we added 100 μl DMB 2X. After 5-20 min incubation the samples were read at 590 nm (Titertek Multiscan Plus).
The cartilage degradation induced by IL-1α was expressed as: GAG (medium)/total GAG (medium+cartilage)×100

[2] = test system: rat primary articular chondrocytes; experiment: Toxicity analysis (MTT) in rat primary chondrocytes; conditions: for First toxic concentration at 24 h: rat primary chondrocytes
Protocol: Purified chondrocytes were resuspended in DMEM glutaMAX 10% and plated in a 96X well plate for toxicity analysis and in a 6X well plate for gene expression analysis.
For toxicity analysis cells were then treated with the different compounds for 24 and 48 h. At the end of the incubation time, the medium was removed and was substituted with a mixture 10:1 of DMEM glutaMAX 10%—MTT (2 mg/ml) for 1 h at 37° C. in the cell incubator. After this incubation, the precipitated salt was dissolved with 100 μl of DMSO and the plate was read at 540 nm. The toxicity analysis were performed to decide the maximal non toxic concentration of each compound used in the gene expression assay.

Fyn = Fyn (Homo sapiens (Human), UniProt P06241); experiment: Z′-LYTE in vitro Fyn kinase activity assay; format: biochemical; conditions: ATP 50 μM; read-out: FYN KINASE INHIBITION IC50
Protocol: The Fyn kinase inhibitory activity of representative examples of compounds of Formula (1) was evaluated by Z′-LYTE™ Kinase Assay Platform (Invitrogen). Compounds were evaluated towards active Fyn (full length active, molecular weight 87.1 kDa; Invitrogen). […] Samples representing the 0% inhibition (or total enzymatic activity) were in the presence of compound diluent (1% DMSO final in Reaction Buffer 50 mMHepes, 10 mM MgCl2, 1 mM EGTA, 0.01% Brij-35, pH 7.5). The kinase reaction was carried out in a total volume of 10 μl, for 60 minutes at 25° C. The 0% Phosphorylation (i.e. no ATP) and 100% Phosphorylation Assay Controls, included in each plate, allowed to calculate the percent phosphorylation achieved in the specific reaction well. Results are expressed as percentage of inhibition and the IC50 values were calculated by non-linear curve fitting using GraphPad™ Prism software (version 6 for Windows).

VEGFR2 = VEGFR2 (Homo sapiens (Human), UniProt P35968); experiment: In vitro VEGFR2 kinase activity assay (Eurofins Cerep); format: biochemical; conditions: read-out: VEGFR2 KINASE INHIBITION IC50
Protocol: The VEGFR2 kinase inhibitory activity of representative examples of compounds of Formula (I) assays was evaluated in Eurofins Cerep (France). The concentration range of the inhibitors under investigation was from 10^−8 M up to 10^−5 M final concentration. Some compounds were re-tested in a concentration-range starting from 10^−9 M. The results are expressed as a percent of control activity (in the absence of test compound) and the IC50 values were determined by non-linear regression analysis of the inhibition/concentration curves generated with mean replicate values.

[3] = Rattus norvegicus, Chondrocyte, 24 h incubation

Sequence of VEGFR2 (P35968 20-1356): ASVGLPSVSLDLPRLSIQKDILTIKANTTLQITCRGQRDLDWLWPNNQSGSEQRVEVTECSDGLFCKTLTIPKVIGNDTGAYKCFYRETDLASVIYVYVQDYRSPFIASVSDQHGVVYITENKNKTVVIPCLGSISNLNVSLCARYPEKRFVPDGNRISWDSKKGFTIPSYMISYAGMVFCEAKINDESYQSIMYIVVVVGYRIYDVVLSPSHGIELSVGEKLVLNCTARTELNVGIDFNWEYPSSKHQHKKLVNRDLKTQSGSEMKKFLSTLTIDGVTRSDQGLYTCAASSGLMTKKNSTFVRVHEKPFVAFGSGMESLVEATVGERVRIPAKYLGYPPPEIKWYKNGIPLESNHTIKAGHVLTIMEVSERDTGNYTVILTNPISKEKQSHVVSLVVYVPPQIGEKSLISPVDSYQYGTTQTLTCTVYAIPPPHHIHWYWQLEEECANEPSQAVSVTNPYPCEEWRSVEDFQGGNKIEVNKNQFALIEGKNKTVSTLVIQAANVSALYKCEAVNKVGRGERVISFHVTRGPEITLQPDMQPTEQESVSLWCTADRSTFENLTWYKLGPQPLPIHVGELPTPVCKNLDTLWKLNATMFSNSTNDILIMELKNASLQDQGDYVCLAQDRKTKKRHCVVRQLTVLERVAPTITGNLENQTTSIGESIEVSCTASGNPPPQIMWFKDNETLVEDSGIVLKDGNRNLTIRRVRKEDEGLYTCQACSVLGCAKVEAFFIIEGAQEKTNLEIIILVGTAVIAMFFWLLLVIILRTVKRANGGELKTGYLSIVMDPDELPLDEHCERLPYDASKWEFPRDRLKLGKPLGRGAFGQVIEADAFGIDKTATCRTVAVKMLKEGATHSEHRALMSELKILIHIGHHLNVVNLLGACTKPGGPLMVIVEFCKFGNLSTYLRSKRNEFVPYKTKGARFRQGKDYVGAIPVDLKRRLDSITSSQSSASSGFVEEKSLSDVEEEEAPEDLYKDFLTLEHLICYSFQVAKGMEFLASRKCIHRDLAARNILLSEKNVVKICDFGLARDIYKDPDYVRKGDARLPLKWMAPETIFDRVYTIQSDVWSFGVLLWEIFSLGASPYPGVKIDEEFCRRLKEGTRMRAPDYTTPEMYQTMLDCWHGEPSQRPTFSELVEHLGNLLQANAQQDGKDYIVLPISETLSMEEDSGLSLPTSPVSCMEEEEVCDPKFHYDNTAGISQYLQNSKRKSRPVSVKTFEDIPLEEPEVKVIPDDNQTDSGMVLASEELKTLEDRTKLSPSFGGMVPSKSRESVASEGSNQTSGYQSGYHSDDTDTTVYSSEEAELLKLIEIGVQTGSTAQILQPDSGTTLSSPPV
Sequence of Fyn (P06241 whole entry): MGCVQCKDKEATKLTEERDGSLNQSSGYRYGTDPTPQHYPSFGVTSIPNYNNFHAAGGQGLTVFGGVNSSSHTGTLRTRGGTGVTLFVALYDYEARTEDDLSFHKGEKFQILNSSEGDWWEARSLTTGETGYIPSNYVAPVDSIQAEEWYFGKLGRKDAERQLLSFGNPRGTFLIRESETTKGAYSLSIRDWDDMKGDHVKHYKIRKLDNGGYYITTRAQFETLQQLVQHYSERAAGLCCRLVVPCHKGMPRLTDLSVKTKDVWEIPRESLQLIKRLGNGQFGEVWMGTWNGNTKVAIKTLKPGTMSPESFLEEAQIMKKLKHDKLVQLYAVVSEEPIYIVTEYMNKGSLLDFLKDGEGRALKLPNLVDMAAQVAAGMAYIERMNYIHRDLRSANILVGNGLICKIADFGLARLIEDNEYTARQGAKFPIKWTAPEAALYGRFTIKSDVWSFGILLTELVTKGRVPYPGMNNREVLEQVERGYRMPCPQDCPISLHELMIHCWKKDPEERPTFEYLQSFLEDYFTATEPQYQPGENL

Row | IC50 (IL-1β) [nM] | IC50 (Fyn) [nM] | IC50 (VEGFR2) [nM] | Structure (SMILES) | IC50 (NF-kB; Mus musculus, JB6 Cl 41-5a) [nM] | MMP3 gene expression, no effect (MMP3) | First toxic concentration at 24 h [2] [µM] | COX2 gene expression, percentage of inhibitory effect at the highest non toxic concentration (COX2; 1 μM) | other results
1 | 2100 |  |  | Cc1ccc(NC(=O)c2cccc(S(C)(=O)=O)c2)cc1CCc1cc(Nc2cnccn2)[nH]n1 [Compound 1, N-(4-methyl-3-(2-(5-(pyrazin-2-ylamino)-1H-pyrazol-3-yl)ethyl)phenyl)-3-(methylsulfonyl)benzamide] | 5080 | ne | >10 |  | IC50 (IL-6): 1600 nM; IC50 (COX2; [3]): 3100 nM; ADAMTS-5 gene expression, percentage of inhibitory effect at the highest non toxic concentration (ADAMTS-5; 10 μM, 6 h): 10 μM 38%; MMP13 gene expression, percentage of inhibitory effect at the highest non toxic concentration (MMP13; 10 μM, 24 h): 10 μM 38%; inhibition at 3 µM ([1]; 3 μM): 88%; First toxic concentration at 48 h in rat primary chondrocytes [2]: 10 µM
2 | 100 | 63 | < 10 | Cc1ccc(NC(=O)c2cc(C(F)(F)F)ccc2F)cc1CCc1cc(Nc2cnccn2)[nH]n1 [Compound 7, 2-fluoro-N-(4-methyl-3-(2-(5-(pyrazin-2-ylamino)-1H-pyrazol-3-yl)ethyl)phenyl)-5-(trifluoromethyl)benzamide] | 1160 | ne | 3 | 1 μM 41% | IC50 (IL-6): 200 nM; ADAMTS-5 gene expression, percentage of inhibitory effect at the highest non toxic concentration (ADAMTS-5; 1 μM, 6 h): 1 μM 81%; MMP13 gene expression, percentage of inhibitory effect at the highest non toxic concentration (MMP13; 1 μM, 24 h): 1 μM 38%
3 | 300 | 20 | < 10 | Cc1ccc(NC(=O)c2cc(S(=O)(=O)C3CC3)ccn2)cc1CCc1cc(Nc2cnccn2)[nH]n1 [Compound 8, 4-(cyclopropylsulfonyl)-N-(4-methyl-3-(2-(5-(pyrazin-2-ylamino)-1H-pyrazol-3-yl)ethyl)phenyl)picolinamide] | < 250 | ne | 3 | 1 μM 63% | IC50 (NF-kB): 233 nM; IL-6 gene expression, percentage of inhibitory effect at the highest non toxic concentration (IL-6; 1 μM): 1 μM 99%; ADAMTS-5 gene expression, no effect (ADAMTS-5; 6 h): ne; MMP13 gene expression, no effect (MMP13; 24 h): ne
4 |  | 143 |  | Cc1ccc(NC(=O)c2cccc(C(F)(F)F)c2)cc1CCc1cnc(Nc2cnccn2)s1 [Compound 49, N-(4-methyl-3-(2-(2-(pyrazin-2-ylamino)thiazol-5-yl)ethyl)phenyl)-3-(trifluoromethyl) benzamide] | 422 |  | 3 | 1 μM 93% | IL-1β gene expression, percentage of inhibitory effect at the highest non toxic concentration (IL-1β; 1 μM): 1 μM 91%; IL-6 gene expression, percentage of inhibitory effect at the highest non toxic concentration (IL-6; 1 μM): 1 μM 100%; IC50 (ADAMTS-5): 200 nM; IC50 (MMP3): 500 nM; IC50 (MMP13; [3]): 240 nM; inhibition at 1 µM ([1]; 1 μM): 35%; First toxic concentration at 48 h in rat primary chondrocytes [2]: 3 µM

More lines, now with the values behind:

Row | Structure (SMILES) | IC50 (IL-1β) [nM] | IC50 (Fyn) [nM] | IC50 (VEGFR2) [nM] | IC50 (NF-kB; Mus musculus, JB6 Cl 41-5a) [nM] | MMP3 gene expression, no effect (MMP3) | First toxic concentration at 24 h [2] [µM] | COX2 gene expression, percentage of inhibitory effect at the highest non toxic concentration (COX2; 1 μM) | other results
5 | Cc1nc(C#N)cc(Nc2cc(CCc3cc(NC(=O)c4ccc(CN(C)C)c(C(F)(F)F)c4)ccc3F)n[nH]2)n1 [Compound 39, N-(3-(2-(5-((6-cyano-2-methylpyrimidin-4-yl)amino)-1H-pyrazol-3-yl)ethyl)-4-fluorophenyl)-4-((dimethylamino)methyl)-3-(trifluoromethyl)benzamide] |  | 1 | 11 | 1060 |  | 10 |  | IL-1β gene expression, percentage of inhibitory effect at the highest non toxic concentration (IL-1β; 3 μM): 3 μM 100%; IL-6 gene expression, percentage of inhibitory effect at the highest non toxic concentration (IL-6; 3 μM): 3 μM 100%; COX2 gene expression, percentage of inhibitory effect at the highest non toxic concentration (COX2; 3 μM): 3 μM 99%; IC50 (ADAMTS-5): 500 nM; IC50 (MMP3): 1200 nM; MMP13 gene expression, percentage of inhibitory effect at the highest non toxic concentration (MMP13; 3 μM, 24 h): 3 μM 90%
6 | Cc1nc(Nc2cc(CCc3ccc(F)c(NC(=O)c4cccc(C(F)(F)F)c4)c3)n[nH]2)cc(N2CCOCC2)n1 [Compound 43, N-(2-fluoro-5-(2-(5-((2-methyl-6-morpholinopyrimidin-4-yl)amino)-1H-pyrazol-3-yl)ethyl)phenyl)-3-(trifluoromethyl)benzamide] |  | 19 | 10 | 2440 |  |  |  | 
7 | CN(C)Cc1ccc(C(=O)Nc2cccc(CCc3cc(NC(=O)c4ccc(N5CCOCC5)cc4)[nH]n3)c2)cc1 [Compound 47, 4-((dimethylamino)methyl)-N-(3-(2-(5-(4-morpholinobenzamido)-1H-pyrazol-3-yl)ethyl)phenyl)benzamide] |  | 10 | 10 |  |  |  |  | Gene reporter (GR) inhibition, no effect (NF-kB): ne
